Columns and labels:
Format in all cases: in vivo
mouches domestiques = assay: Lethal effect on house flies, topical application; settings: for activité (conclusion): conclusion in words on the lethal test on house flies; for DL 50 (ng par individu): female house flies 4/5 days old, topical 1 µl acetone solution on dorsal thorax, mortality 24 h after treatment
Procedure: 1°); Etude de l'effet létal sur mouches domestiques.
Les insectes tests sont des mouches domestiques femelles âgées de 4/5 jours. On opère par application topique de 1 ul de solution acétonique du produit sur le thorax dorsal des insectes à l'aide du micro manipulateur d'Arnold. On utilise 50 individus par dose et par traitement. On effectue le contrôle de mortalité vingt-quatre heures après traitement.
Le résultat obtenu exprimé en DL 50 ou dose (en nanogrammes) nécessaire pour tuer 50% des insectes, est le suivant: […]

Tétranychus urticae = assay: Adulticide test on Tetranychus urticae on bean plants; settings: dose 2,8 mg/I, sprayed bean plants, checks after 1, 24, 48 and 72 h of contact
Procedure: 5°): Activité sur Tétranychus urticae. (composé de l'exemple 1)
On utilise des plants de haricot comportant deux feuilles cotylédonaires. Ces plants sont traités au pistolet Fisher avec une solution acétonique du produit. Après séchage 25 femelles de l'acarien Tétranychus urticae sont disposées par feuilles soit 50 individus par dose expérimentée par plant. Les contrôles d'efficacité sont effectués après 1, 24, 48 et 72 heures de contact.

[1] = tested on: larves de Spodoptera littoralis; assay: Effect on Spodoptera littoralis larvae, topical application; settings: for activité (conclusion): conclusion in words on the Spodoptera littoralis test; for DL 50 (ng par individu): fourth-instar larvae, topical acetone solution on dorsal thorax, mortality 48 h after treatment
Procedure: 2°): Etude de l'effet sur larves de Spodoptera littoralis.
Les essais sont effectués par application topique d'une solution acétonique du produit à tester à l'aide du micro manipulateur d'Arnold sur le thorax dorsal des larves. On utilise 15 larves par dose de produit à tester. Les larves utilisées sont des larves du quatrième stade larvaire, c'est-à-dire âgées d'environ 10 jours lorsqu'elles sont élevées à 24°C et 65% d'humidité relative. Après traitement, les individus sont placés sur un milieu nutritif artificiel (milieu de Poitout).
On effectue le contrôle des mortalités 48 heures après traitement.

[2] = tested on: blatte germanique (Blatella germanica); assay: Tarsal contact activity on German cockroach
Procedure: 4°): Etude de l'activité par contact tarsal sur blatte germanique. (composé de l'exemple 1J
Les insectes testés sont des mâles de blatte germanique (Blatella germanica). On opère par dépôt d'une solution acétonique de concentration déterminée sur le fond d'une boîte de Petri de 20 cm de diamètre. Après séchage on laisse séjourner 20 mâles de blattes par concentration durant 1 heure puis on transfère les insectes sur milieu sain et on contrôle leur mortalité à 24 h, 48 h, 3 et 5 jours.

mouche domestique = assay: Knock-down activity on house fly, direct spray in Kearns and March chamber; settings: for KT 50 en mn: direct spray, acetone/isopar L; for activité (conclusion): conclusion in words on the knock-down test
Procedure: 3°): Etude de l'activité de choc sur mouche domestique.
Les insectes tests sont des mouches domestiques femelles âgées de 4/5 jours. On opère par pulvérisation directe en chambre de Kearns et March en utilisant comme solvant un mélange en volumes égaux d'acétone et d'isopar L (quantité de solution utilisée 2 x 0,2 cm3). On utilise environ 50 insectes par dose de traitement. On effectue les contrôles toutes les minutes jusqu'à 10 minutes, puis à 15 minutes et l'on détermine le KT 50 par les méthodes habituelles.

SMILES	activité (conclusion) (mouches domestiques)	DL 50 (ng par individu) (mouches domestiques)	KT 50 en mn (mouche domestique; Concentration 1 g/l)	activité (conclusion) (mouche domestique)	further results
C#C[C@@H](OC(=O)[C@@H]1[C@H](/C=C\C(=O)OCC(F)(F)F)C1(C)C)c1cccc(Oc2ccccc2)c1 [Exemple 29, (1R cis) 2,2-diméthyl-3-/(Z)-3-oxo 3-(2,2,2-trifluoro éthoxy) 1-propényl/ cyclopropane carboxylatede (R) a-éthynyl 3-phénoxy benzyle]	activité remarquable	0,825 ng par individu	–	–	–
CC1(C)[C@H](C(=O)O[C@H](C#N)c2cccc(Oc3ccccc3)c2)[C@@H]1/C=C\C(=O)OCC(F)(F)F [Exemple 1, (1 R cis) 2,2-diméthyl 3/(Z) 3-(2,2,2-trifluoroéthoxy) 3-oxo 1-propényl/ cyclopropane carboxylatede (S) a-cyano 3-phénoxy benzyle]	activité remarquable	1,115 ng par individu	3,534 mn	bonne activité	activité (essai adulticide) (Tétranychus urticae): très bonne activité; activité (conclusion) [1]: bonne activité; DL 50 (ng par individu) [1]: 4,699 ng par individu; activité (conclusion) ([2]; conclusion in words on the tarsal contact test): très bonne activité; concentration létale 50 (CL 50) ([2]; male cockroaches, 1 h contact with dried deposit in Petri dish, mortality checked at 24 h, 48 h, 3 and 5 days): 0,216 mg/m2
CC1(C)[C@H](C(=O)O[C@H](C#N)c2cccc(Oc3ccccc3)c2)[C@@H]1/C=C\C(=O)OC(C(F)(F)F)C(F)(F)F [Exemple 23, (1R cis) 2,2-diméthyl-3-/(Z)-3-oxo 3-(2-(1,1,1,3,3,3-hexafluoro)propoxy) 1-propényl/ cyclopropane carboxylatede (S) a-cyano 3-phénoxy benzyle]	activité remarquable	0,962 ng par individu	–	–	–
CC1(C)[C@H](C(=O)OC(C#N)c2cccc(Oc3ccccc3)n2)[C@@H]1/C=C\C(=O)OCC(F)(F)F (stereo partly drawn) [Exemple 30, (1R cis) 2,2-diméthyl-3-/(Z)-3-oxo 3-(2,2,2-trifluoro éthoxy) 1-propényl/ cyclopropane carboxylatede (RS) a-cyano 6-phénoxy 2-pyridyl méthyle]	–	–	3,498 mn	bonne activité	–
C#CCN1CC(=O)N(COC(=O)[C@@H]2[C@H](/C=C\C(=O)OCC(F)(F)F)C2(C)C)C1=O [Exemple 26, (1R cis) 2,2-diméthyl-3-/(Z)-3-oxo 3-(2,2,2-trifluoro éthoxy) 1-propényl/ cyclopropane carboxylatede (3-propargyl 2,5-dioxoimidazolidinyl) méthyle]	–	–	–	bonne activité	KT 50 en mn (mouche domestique; Concentration 0,25 g/l): 1,550 mn
CC1(C)[C@H](C(=O)O[C@H](C#N)c2cccc(Oc3ccccc3)c2)[C@@H]1/C=C\C(=O)OCCF [Exemple 35, (1R cis) 2,2-diméthyl-3-/(Z)-3-oxo 3-(2-fluoroéthoxy) 1-propényl/ cyclopropane carboxylatede (S) a-cyano 3-phénoxy benzyle]	–	–	2,894 mn	bonne activité	activité (conclusion) [1]: bonne activité; DL 50 (ng par individu) [1]: 0,544 ng par individu
C=CCC1=C(C)[C@@H](OC(=O)[C@@H]2[C@H](/C=C\C(=O)OCC(F)(F)F)C2(C)C)CC1=O [Exemple 2, (1R cis) 2,2-diméthyl-3-/(Z)-3-oxo-3-(2,2,2-trifluoroéthoxy) 1-propényll cyclopropane carboxylatede (1S) 2-diméthyl-4-oxo-3-(2-propényl) 2-cyclopenten-1-yle]	–	–	–	bonne activité	KT 50 en mn (mouche domestique; Concentration 0,25 g/l): 3,608 mn

Reference: patent EP0048186B1, “Cyclopropane-carboxylic-acid derivatives, their preparation, their use in combating vegetal parasites, animals and locations, their compositions, and intermediates” (ROUSSEL-UCLAF, priority 1980, dated 1982)
